From the NIST ThermoML archive (doi:10.1016/j.tca.2012.05.025)
Numbers after ± are expanded uncertainties.

Columns and labels:
[1] = for surface tension liquid-gas: roughened platinum plate-detachment; for viscosity / mass density: 101 kPa, Liquid; for viscosity: Capillary tube (Ostwald / Ubbelohde) method; for mass density: Vibrating tube method
[2] = refractive index (Na D-line) (dimensionless); conditions: 101.33 kPa, Liquid, Standard Abbe refractometry
[3] = xn = mol fraction of the nth substance listed; conditions: x2 = 0; for surface tension liquid-gas: roughened platinum plate-detachment; for viscosity / mass density: 101 kPa, Liquid; for viscosity: Capillary tube (Ostwald / Ubbelohde) method; for mass density: Vibrating tube method
[4] = refractive index (Na D-line) (dimensionless); xn = mol fraction of the nth substance listed; conditions: 101 kPa, Liquid, Standard Abbe refractometry, x2 = 0

CN(C)CCCO [3-dimethylamino-1-propanol]
surface tension liquid-gas ([1]; 298.15 K): 29.01 ± 0.18 mN/m
viscosity ([1]; 298.15 K): 5.839 ± 0.12 mPa·s
mass density ([1]; 298.15 K): 880.25 ± 0.24 kg/m3
surface tension liquid-gas ([1]; 303.15 K): 29.28 ± 0.18 mN/m
viscosity ([1]; 303.15 K): 4.963 ± 0.11 mPa·s
mass density ([1]; 303.15 K): 876.46 ± 0.24 kg/m3
surface tension liquid-gas ([1]; 308.15 K): 28.88 ± 0.18 mN/m
surface tension liquid-gas ([1]; 313.15 K): 28.47 ± 0.17 mN/m
viscosity ([1]; 313.15 K): 4.266 ± 0.091 mPa·s
mass density ([1]; 313.15 K): 868.42 ± 0.24 kg/m3
surface tension liquid-gas ([1]; 318.15 K): 28.13 ± 0.17 mN/m
surface tension liquid-gas ([1]; 323.15 K): 27.63 ± 0.17 mN/m
viscosity ([1]; 323.15 K): 3.253 ± 0.069 mPa·s
mass density ([1]; 323.15 K): 860.29 ± 0.24 kg/m3
surface tension liquid-gas ([1]; 333.15 K): 26.81 ± 0.17 mN/m
viscosity ([1]; 333.15 K): 2.768 ± 0.059 mPa·s
mass density ([1]; 333.15 K): 852.1 ± 0.24 kg/m3
viscosity ([1]; 343.15 K): 2.03 ± 0.043 mPa·s
mass density ([1]; 343.15 K): 843.77 ± 0.24 kg/m3
refractive index ([2]; 293.15 K): 1.4368 ± 0.005
refractive index ([2]; 298.15 K): 1.4347 ± 0.005
refractive index ([2]; 303.15 K): 1.4326 ± 0.005
refractive index ([2]; 308.15 K): 1.4305 ± 0.005
refractive index ([2]; 313.15 K): 1.4285 ± 0.005
refractive index ([2]; 318.15 K): 1.4264 ± 0.005
refractive index ([2]; 323.15 K): 1.4243 ± 0.005
refractive index ([2]; 328.15 K): 1.4222 ± 0.005
refractive index ([2]; 333.15 K): 1.42 ± 0.005

O [water]
surface tension liquid-gas ([1]; 298.15 K): 72.09 ± 0.1 mN/m
viscosity ([1]; 298.15 K): 0.882 ± 0.018 mPa·s
surface tension liquid-gas ([1]; 303.15 K): 71.27 ± 0.1 mN/m
viscosity ([1]; 303.15 K): 0.804 ± 0.017 mPa·s
surface tension liquid-gas ([1]; 308.15 K): 70.44 ± 0.1 mN/m
surface tension liquid-gas ([1]; 313.15 K): 69.66 ± 0.1 mN/m
viscosity ([1]; 313.15 K): 0.659 ± 0.014 mPa·s
surface tension liquid-gas ([1]; 318.15 K): 68.83 ± 0.1 mN/m
surface tension liquid-gas ([1]; 323.15 K): 67.95 ± 0.1 mN/m
viscosity ([1]; 323.15 K): 0.551 ± 0.012 mPa·s
mass density ([1]; 323.15 K): 988.03 ± 0.11 kg/m3
surface tension liquid-gas ([1]; 333.15 K): 66.23 ± 0.1 mN/m
viscosity ([1]; 333.15 K): 0.47 ± 0.01 mPa·s
mass density ([1]; 333.15 K): 983.19 ± 0.11 kg/m3
viscosity ([1]; 343.15 K): 0.407 ± 0.009 mPa·s
mass density ([1]; 343.15 K): 977.75 ± 0.11 kg/m3
refractive index ([2]; 293.15 K): 1.333 ± 0.005
refractive index ([2]; 298.15 K): 1.3325 ± 0.005
refractive index ([2]; 303.15 K): 1.3319 ± 0.005
refractive index ([2]; 308.15 K): 1.3314 ± 0.005
refractive index ([2]; 313.15 K): 1.3307 ± 0.005
refractive index ([2]; 318.15 K): 1.3299 ± 0.005
refractive index ([2]; 323.15 K): 1.3291 ± 0.005
refractive index ([2]; 328.15 K): 1.3282 ± 0.005
refractive index ([2]; 333.15 K): 1.3273 ± 0.005

O [water] + CN(C)CCCO
surface tension liquid-gas ([3]; 298.15 K): 72.09 ± 2 mN/m
viscosity ([3]; 298.15 K): 0.882 ± 0.018 mPa·s
surface tension liquid-gas ([3]; 303.15 K): 71.27 ± 2 mN/m
viscosity ([3]; 303.15 K): 0.804 ± 0.017 mPa·s
surface tension liquid-gas ([3]; 308.15 K): 70.44 ± 2 mN/m
surface tension liquid-gas ([3]; 313.15 K): 69.66 ± 2 mN/m
viscosity ([3]; 313.15 K): 0.659 ± 0.014 mPa·s
surface tension liquid-gas ([3]; 318.15 K): 68.83 ± 2 mN/m
surface tension liquid-gas ([3]; 323.15 K): 67.95 ± 2 mN/m
viscosity ([3]; 323.15 K): 0.551 ± 0.012 mPa·s
mass density ([3]; 323.15 K): 988.03 ± 0.11 kg/m3
surface tension liquid-gas ([3]; 333.15 K): 66.23 ± 2 mN/m
viscosity ([3]; 333.15 K): 0.47 ± 0.01 mPa·s
mass density ([3]; 333.15 K): 983.19 ± 0.11 kg/m3
viscosity ([3]; 343.15 K): 0.407 ± 0.009 mPa·s
mass density ([3]; 343.15 K): 977.75 ± 0.11 kg/m3
refractive index ([4]; 293.15 K): 1.333 ± 0.005
refractive index ([4]; 298.15 K): 1.3325 ± 0.005
refractive index ([4]; 303.15 K): 1.3319 ± 0.005
refractive index ([4]; 308.15 K): 1.3314 ± 0.005
refractive index ([4]; 313.15 K): 1.3307 ± 0.005
refractive index ([4]; 318.15 K): 1.3299 ± 0.005
refractive index ([4]; 323.15 K): 1.3291 ± 0.005
refractive index ([4]; 328.15 K): 1.3282 ± 0.005
refractive index ([4]; 333.15 K): 1.3273 ± 0.005
